US20030095958A1, “Inhibitors of bace” (priority 2001, published 2003)

biological target: BACE (Homo sapiens, UniProt P56817); experiment: Ki Determination for the Inhibition of BACE (FS-1 peptide fluorescence cleavage assay); format: biochemical; settings: apparent Ki; 50 nM BACE, 10 μM FS-1 substrate, 0.1M sodium acetate pH 4.5
Procedure, shortened: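 Apparent Ki values derive from fitting fluorescence progress data (355 nm excitation, 495 nm emission) of FS-1 peptide cleavage to an integrated competitive tight-binding model. Reactions held 50 nM BACE, 10 μM substrate and inhibitor in 2% DMSO, pH 4.5 acetate buffer, with a 15 min enzyme-compound preincubation at room temperature.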

BACE, sequence (P56817 46-501): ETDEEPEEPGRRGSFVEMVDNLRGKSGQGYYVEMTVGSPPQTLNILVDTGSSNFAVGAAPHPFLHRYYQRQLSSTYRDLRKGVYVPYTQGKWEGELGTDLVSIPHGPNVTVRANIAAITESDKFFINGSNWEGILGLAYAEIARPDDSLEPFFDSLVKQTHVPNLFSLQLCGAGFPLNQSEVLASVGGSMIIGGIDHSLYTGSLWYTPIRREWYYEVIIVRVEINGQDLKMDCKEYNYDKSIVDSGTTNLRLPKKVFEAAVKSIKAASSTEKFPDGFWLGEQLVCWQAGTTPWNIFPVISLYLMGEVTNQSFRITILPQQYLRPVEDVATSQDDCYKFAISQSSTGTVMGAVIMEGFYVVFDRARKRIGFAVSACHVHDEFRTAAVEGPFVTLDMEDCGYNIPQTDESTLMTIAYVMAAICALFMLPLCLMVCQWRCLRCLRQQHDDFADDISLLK

First: C1=C(c2cc(COc3ccc4ccccc4c3)c(-c3ccccc3)cc2COc2ccc3ccccc3c2)CCNC1 [Compound 307, 4-[2,5-Bis-(naphthalen-2-yloxymethyl)-biphenyl-4-yl]-1,2,3,6-tetrahydro-pyridine]
Second: FC(F)(F)c1ccccc1OCc1ccc(COc2ccc(-c3ccccc3)cc2-c2ccccc2)c(C2=CCNCC2)c1 [Compound 326, 4-[2-([1,1′;3′,1′′]Terphenyl-4′-yloxymethyl)-5-(2-trifluoromethyl-phenoxymethyl)-phenyl]-1,2,3,6-tetrahydro-pyridine]
The Ki of the first is lower: < 3 µM for the first, 3 to 30 µM for the second. The first binds more tightly here.

`O=C(Nc1ccc2ccccc2c1)c1ccc(COc2ccccc2C(F)(F)F)cc1C1=CCNCC1` [Compound 308, N-Naphthalen-2-yl-2-{1,2,3,6-tetrahydro-pyridin-4-yl)-4-(2-trifluoromethyl-phenoxymethyl)-benzamide] and `O=C(Nc1cccc2ccccc12)c1ccc(COc2ccccc2C(F)(F)F)cc1C1=CCNCC1` [Compound 322, N-Naphthalen-1-yl-2-(1,2,3,6-tetrahydro-pyridin-4-yl)-4-(2-trifluoromethyl-phenoxymethyl)-benzamide] fall in the same range of Ki: 3 to 30 µM for the first, 3 to 30 µM for the second.

`COc1cc(NC(=O)c2ccc(COc3ccccc3C(F)(F)F)cc2C2=CCNCC2)cc2ccccc12` [Compound 309, N-(4-Methoxy-naphthalen-2-yl)-2-(1,2,3,6-tetrahydro-pyridin-4-yl)-4-(2-trifluoromethyl-phenoxyraethyl)-benzamide] and `Nc1cc2ccccc2cc1NC(=O)c1ccc(COc2ccccc2C(F)(F)F)cc1C1=CCNCC1` [Compound 311, N-(3-Amino-naphthalen-2-yl)-2-(1,2,3,6-tetrahydro-pyridin-4-yl)-4-(2-trifluoromethyl-phenoxymethyl)-benzamide] fall in the same range of Ki: 3 to 30 µM for the first, 3 to 30 µM for the second.

Compared with `Nc1cccc2c(NC(=O)c3ccc(COc4ccccc4C(F)(F)F)cc3C3=CCNCC3)cccc12` [Compound 310, N-(5-Amino-naphthalen-1-yl)-2-(1,2,3,6-tetrahydro-pyridin-4-yl)-4-(2-trifluoromethyl-phenoxymethyl)-benzamide], `O=C(OCc1ccc(COc2ccccc2C(F)(F)F)cc1C1=CCNCC1)c1cccc2ccccc12` [Compound 312, Naphthalene-1-carboxylic acid 2-(1,2,3,6-tetrahydro-pyridin-4-yl)-4-(2-trifluoromethyl-phenoxymethyl)-benzyl ester] is lower in Ki: 3 to 30 µM for the first, < 3 µM for the second.

`O=C(OCc1ccc(COc2ccccc2C(F)(F)F)cc1C1=CCNCC1)c1ccc2ccccc2c1` [Compound 313, Naphthalene-2-carboxylic acid 2-(1,2,3,6-tetrahydro-pyridin-4-yl)-4-(2-trifluoromethyl-phenoxymethyl)-benzyl ester] and `O=C(OCc1ccc(COc2ccccc2C(F)(F)F)cc1C1=CCNCC1)Oc1ccc2ccccc2c1` [Compound 319, Carbonic acid naphthalen-2-yl ester 2-(1,2,3,6-tetrahydro-pyridin-4-yl)-4-(2-trifluoromethyl-phenoxymethyl)-benzyl ester] cannot be ordered by Ki: < 3 µM for the first, < 3 µM for the second.

First: O=C(OCc1ccc(COc2ccccc2C(F)(F)F)cc1C1=CCNCC1)c1ccccc1C(F)(F)F [Compound 314, 2-Trifluoromethyl-benzoic acid 2-(1,2,3,6-tetrahydro-pyridin-4-yl)-4-(2-trifluoromethyl-phenoxymethyl)-benzyl ester]
Second: FC(F)(F)c1cccc(OCc2ccc(COc3ccccc3C(F)(F)F)cc2C2=CCNCC2)c1 [Compound 324, 4-[5-(2-Trifluoromethyl-phenoxymethyl)-2-(3-trifluoromethyl-phenoxymethyl)-phenyl]-1,2,3,6-tetrahydro-pyridine]
The Ki of the first is higher: 3 to 30 µM for the first, < 3 µM for the second.

First: O=C(COCc1ccccc1)OCc1ccc(COc2ccccc2C(F)(F)F)cc1C1=CCNCC1 [Compound 315, Benzyloxy-acetic acid 2-(1,2,3,6-tetrahydro-pyridin-4-yl)-4-(2-trifluoromethyl-phenoxymethyl)-benzyl ester]
Second: O=C(OCc1ccc(COc2ccccc2C(F)(F)F)cc1C1=CCNCC1)Oc1cccc2ccccc12 [Compound 318, Carbonic acid naphthalen-1-yl ester 2-(1,2,3,6-tetrahydro-pyridin-4-yl)-4-(2-trifluoromethyl-phenoxymethyl)-benzyl ester]
The Ki of the first is higher: 3 to 30 µM for the first, < 3 µM for the second. The second binds more tightly here.

`O=C(OCc1ccc(COc2ccccc2C(F)(F)F)cc1C1=CCNCC1)c1ccc2c(c1)OCO2` [Compound 316, Benzo[1,3]dioxole-5-carboxylic acid 2-(1,2,3,6-tetrahydro-pyridin-4-yl)-4-(2-trifluoromethyl-phenoxymethyl)-benzyl ester] and `COC(=O)c1ccc(C(=O)OCc2ccc(COc3ccccc3C(F)(F)F)cc2C2=CCNCC2)cc1` [Compound 317, Terephthalic acid 1-methyl ester 4-[2-(1,2,3,6-tetrahydro-pyridin-4-yl)-4-(2-trifluoromethyl-phenoxymethyl)-benzyl] ester] fall in the same range of Ki: 3 to 30 µM for the first, 3 to 30 µM for the second.

Compared with `FC(F)(F)c1ccccc1OCc1ccc(COc2cccc3ccccc23)c(C2=CCNCC2)c1` [Compound 320, 4-[2-(Naphthalen-1-yloxymethyl)-5-(2-trifluoromethyl-phenoxymethyl)-phenyl]-1,2,3,6-tetrahydro-pyridine], `FC(F)(F)c1ccccc1OCc1ccc(COc2ccc3ccccc3c2)c(C2=CCNCC2)c1` [Compound 321, 4-[2-(Naphthalen-2-yloxymethyl)-5-(2-trifluoromethyl-phenoxymethyl)-phenyl]-1,2,3,6-tetrahydro-pyridine] is lower in Ki: 3 to 30 µM for the first, < 3 µM for the second.

Compared with `FC(F)(F)c1ccc(OCc2ccc(COc3ccccc3C(F)(F)F)cc2C2=CCNCC2)cc1` [Compound 323, 4-[5-(2-Trifluoromethyl-phenoxymethyl)-2-(4-trifluoromethyl-phenoxymethyl)-phenyl]-1,2,3,6-tetrahydro-pyridine], `COC(=O)c1ccc(OCc2ccc(COc3ccccc3C(F)(F)F)cc2C2=CCNCC2)cc1` [Compound 329, 4-[2-(1,2,3,6-Tetrahydro-pyridin-4-yl)-4-(2-trifluoromethyl-phenoxymethyl)-benzyloxy]-benzoic acid methyl ester] is higher in Ki: < 3 µM for the first, 3 to 30 µM for the second. The first binds more tightly here.

`FC(F)(F)c1ccccc1OCc1ccc(COc2ccc(-c3ccccc3)cc2)c(C2=CCNCC2)c1` [Compound 325, 4-[2-(Biphenyl-4-yloxymethyl)-5-(2-trifluoromethyl-phenoxymethyl)-phenyl]-1,2,3,6-tetrahydro-pyridine] and `FC(F)(F)c1ccccc1OCc1ccc(COc2cccc3ncccc23)c(C2=CCNCC2)c1` [Compound 327, 5-[2-(1,2,3,6-Tetrahydro-pyridin-4-yl)-4-(2-trifluoromethyl-phenoxymethyl)-benzyloxy]-quinoline] cannot be ordered by Ki: < 3 µM for the first, < 3 µM for the second.

First: COC(=O)c1cccc(OCc2ccc(COc3ccccc3C(F)(F)F)cc2C2=CCNCC2)c1 [Compound 328, 3-[2-(1,2,3,6-Tetrahydro-pyridin-4-yl)-4-(2-trifluoromethyl-phenoxymethyl)-benzyloxy]-benzole acid methyl ester]
Second: COC(=O)c1cc(OCc2ccc(COc3ccccc3C(F)(F)F)cc2C2=CCNCC2)cc(C(=O)OC)c1 [Compound 330, 5-[2-(1,2,3,6-Tetrahydro-pyridin-4-yl)-4-(2-trifluoromethyl-phenoxymethyl)-benzyloxy]-isophthalic acid dimethyl ester]
The Ki of the first is higher: 3 to 30 µM for the first, < 3 µM for the second. The second binds more tightly here.

`O=C1CCCc2c(OCc3ccc(COc4ccccc4C(F)(F)F)cc3C3=CCNCC3)cccc21` [Compound 331, 5-[2-(1,2,3,6-Tetrahydro-pyridin-4-yl)-4-(2-trifluoromethyl-phenoxymethyl)-benzyloxy]-3,4-dihydro-2H-naphthalen-1-one] and `CCOC(=O)c1c(C)[nH]c2ccc(OCc3ccc(COc4ccccc4C(F)(F)F)cc3C3=CCNCC3)cc12` [Compound 332, 2-Methyl-5-[2-(1,2,3,6-tetrahydro-pyridin-4-yl)-4-(2-trifluoromethyl-phenoxymethyl)-benzyloxy]-1H-indole-3-carboxylic acid ethyl ester] cannot be ordered by Ki: < 3 µM for the first, < 3 µM for the second.

First: FC(F)(F)c1ccccc1OCc1cc(C2=CCNCC2)c(COc2ccccc2C(F)(F)F)cc1Br [Compound 333, 4-[4-Bromo-2,5-bis-(2-trifluoromethyl-phenoxymethyl)-phenyl]-1,2,3,6-tetrahydro-pyridine]
Second: FC(F)(F)c1ccccc1OCc1cc(C2=CCNCC2)c(COc2ccccc2C(F)(F)F)cc1C1=CCNCC1 [Compound 334, 4-[4-(1,2,3,6-Tetrahydro-pyridin-4-yl)-2,5-bis-(2-trifluoromethyl-phenoxymethyl)-phenyl]-1,2,3,6-tetrahydro-pyridine]
The Ki of the first is lower: < 3 µM for the first, 3 to 30 µM for the second.

`FC(F)(F)c1ccccc1OCc1cc(-c2ccc(Cl)c(Cl)c2)c(COc2ccccc2C(F)(F)F)cc1C1=CCNCC1` [Compound 335, 4-[3′,4′-Dichloro-2,5-bis-(2-trifluoromethyl-phenoxymethyl)-biphenyl-4-yl]-1,2,3,6-tetrahydro-pyridine] and `FC(F)(F)c1cccc(-c2cc(COc3ccccc3C(F)(F)F)c(C3=CCNCC3)cc2COc2ccccc2C(F)(F)F)c1` [Compound 337, 4-[3′-Trifluoromethyl-2,5-bis-(2-trifluoromethyl-phenoxymethyl)-biphenyl-4-yl]-1,2,3,6-tetrahydro-pyridine] fall in the same range of Ki: 3 to 30 µM for the first, 3 to 30 µM for the second.

First: FC(F)(F)c1ccccc1OCc1cc(-c2ccccc2C(F)(F)F)c(COc2ccccc2C(F)(F)F)cc1C1=CCNCC1 [Compound 336, 4-[2′-Trifluoromethyl-2,5-bis-(2-trifluoromethyl-phenoxymethyl)-biphenyl-4-yl]-1,2,3,6-tetrahydro-pyridine]
Second: FC(F)(F)c1ccc(-c2cc(COc3ccccc3C(F)(F)F)c(C3=CCNCC3)cc2COc2ccccc2C(F)(F)F)cc1 [Compound 338, 4-[4′-Trifluoromethyl-2,5-bis-(2-trifluoromethyl-phenoxymethyl)-biphenyl-4-yl]-1,2,3,6-tetrahydro-pyridine]
The Ki of the first is lower: < 3 µM for the first, 3 to 30 µM for the second.
